Experimental data as given in patent US20180312539A1, “METHODS FOR PREPARING HIGH THROUGHPUT PEPTIDOMIMETICS, ORALLY BIOAVAILABLE DRUGS AND COMPOSITIONS CONTAINING SAME” (University of Southern California, priority 2011, published 2018).

Columns and labels:
[1] = target: T1, chymotrypsin (Bos taurus, UniProt P00766); assay: Protease resistance experiment, chymotrypsin digest; assay type: in vitro ADME
T1 construct: purchased Sigma
Experimental: Immobilized chymotrypsin and proteinase K purchased from Sigma.
Protease resistance enhancement was then tested.
Towards that end, three peptides were synthesized. […] The effects were dramatic and surprising.

[2] = target: proteinase K (Parengyodontium album, UniProt P06873)
Chain of proteinase K (P06873 106-384): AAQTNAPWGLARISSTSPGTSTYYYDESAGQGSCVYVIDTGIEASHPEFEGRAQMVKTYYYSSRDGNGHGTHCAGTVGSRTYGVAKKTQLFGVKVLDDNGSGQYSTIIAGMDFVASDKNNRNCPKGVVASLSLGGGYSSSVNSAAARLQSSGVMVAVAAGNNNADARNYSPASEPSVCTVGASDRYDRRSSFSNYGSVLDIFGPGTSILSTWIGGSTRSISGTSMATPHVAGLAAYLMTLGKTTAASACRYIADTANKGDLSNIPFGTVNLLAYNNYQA
Experimental: Immobilized chymotrypsin and proteinase K purchased from Sigma. 250 nmoles of peptide in DMSO were added to 50 mM sodium phosphate buffer (pH=8.0) with a final DMSO concentration of 2%. […] The graph was generated by fitting the data to a one phase exponential decay equation (GraphPad Prism 5.0).
Protease resistance enhancement was then tested. The simplest solution for enhancing protease resistance would be the removal of amino acids recognized by protease K and chymotrypsin.
Next the role of each of the N-methyl alanines was analyzed independently. […] For example sequence modifications, including N-methylation would be accomplished one amino acid at a time, walking the peptide from low protease stability to high stability. Whether this is a viable approach for making a peptide like SUPR was investigated. Towards that end, Applicants walked back from SUPR peptide to something closer to cycGIBP, and to determine if there was a gradual decrease in protease resistance. Towards that end, three peptides were synthesized. Two of them contained only one NMA (alanine was substituted for NMA), and the other had no NMA. It was hypothesized that if one could walk back to cycGIBP, then one would expect the loss of a single N-methyl to have some effect on reducing protease resistance, but to still be better than cycGIBP.

[3] = Human serum digests; assay type: in vitro ADME; conditions: reconstituted human serum, 37° C
Experimental: (§1) Delipidated/lyophilized human serum was purchased from Thermo Scientific and reconstituted as per manufacturer's instructions. 250 nmoles of peptide in 50 μLs of sodium phosphate buffer (pH=8.0) with 10% DMSO was added to 1 mL of reconstituted serum and incubated at 37° C. 100 μL aliquots were taken at various time points and quenched in 300 μLs of acetonitrile. Samples were spun down and decanted to remove precipitate followed by dilution in water to 1.5 mLs. Samples were then analyzed by HPLC as described in the protease resistance experiment.
as §1, with “μL” for “μLs”, “mLs.” for “mLs. Samples were then analyzed by HPLC as described in the protease resistance experiment.”
The human serum and human microsome stability of the Gαi1 binding SUPR peptide ([…] (SEQ ID NO: 7)) were compared to the peptides ability to bind to Her-2. Beginning with the human serum analysis, peptides were digested with 95% human serum at 37° C. Analysis was performed by HPLC. […] Therefore, intact peptide is only completely unmodified peptide. Digestions of SUPR, HMP, and PMP are show have lives very similar to SUPR. Digestion of PMP2 is in progress. Without being bound by theory, Applicants theorize that the fitting for HMP may have produced an artificially low half-life.

[4] = Human microsome digests; assay type: in vitro ADME
Experimental: Pooled, mixed gender human microsomes containing cytochrome P450's were obtained from Xenotech. 100 μL of microsomes were added to 500 of PBS buffer containing 250 nmoles of peptide with 1% DMSO. 50 μL aliquots were removed at various time points and worked up in the same manner as the human serum digests.
Another vital area for the in vivo processing of drugs is the liver. All blood is eventually filtered through the liver, where various types of enzymes functionalize drugs for the purpose of excretion. […] These enzymes are largely involved in the oxidation of drugs, and can be found on the […]. Human liver microsomes are functional liver extract containing cytochrome P450s. Therefore half-life of modification of peptides by cytochrome P450s from exposure to human microsomes was examined. The results were similar to the human serum result in that both cyclization and N-methylation were necessary for significant enhancement of resistance to modification. […] This is interesting because the trait of protease resistance, not resistance to cytochrome P450 modification was a selection criteria.
A similar experiment was performed analyzing protease resistance to cytochrome P450 degradation. Peptide was incubated with human liver microsomes at 37° C. All peptides were highly protease resistant. […]

[5] = mouse, iv
Experimental: 200 μL of peptide was administered by IV injection into the tail vein of C57BL6 mice at a dose of 10 mg/kg. 50 μL blood samples were taken at various time points by orbital bleeding using heparin coated capillary tubes and isoflurane for anesthesia. Samples are diluted to 600 μLin TE buffer (pH=8.0) then filtered by centrifugation through a 3000 MWCO filter. The flowthrough was analyzed on a Shimadzu RF-5301 PC fluorometer. Time points were integrated and analyzed using Prism 5.0 software.
To that end mice were administered peptide conjugated to fluorescein by IV injection into the tail vein. Blood samples were taken by orbital bleeding. Blood peptide concentration was determined by comparing fluorescence to a 15 minute time point.

CSCC[C@@H]1NC(=O)CCCC(=O)NCCCC[C@@H](C(N)=O)NC(=O)[C@H](CO)NC(=O)[C@H](Cc2c[nH]c3ccccc23)NC(=O)[C@H](CCC(N)=O)NC(=O)[C@H](C)N(C)C(=O)[C@H](Cc2ccc(O)cc2)NC(=O)[C@H](CCC(=O)O)NC(=O)[C@H](Cc2ccc(O)cc2)NC(=O)[C@H](C)N(C)C(=O)[C@H](Cc2ccc(O)cc2)NC(=O)[C@H](Cc2ccccc2)NC1=O [cycSUPR]
fold more resistant to chymotrypsin ([1]; compared to CycGIBP): ~200 fold
digest sites found from chymotrypsin ([1]; five theoretical digest sites): two
fold more resistant to proteinase K [2]: approximately 5200 fold
digest sites found from proteinase K ([2]; seven theoretical digest sites): 1
half-life [3]: 160 h
resistance to cytochrome P450 degradation ([4]; human liver microsomes, 37° C (Experiment No. 4)): more preotease resistant than the Her-2 binding peptides
stability to human liver microsomes (cytochrome P450s) ([4]; versus cycGIBP or linSUPR): nearly an order of magnitude increase in stability
fold increase in in vivo half-life over cycGIBP [5]: roughly 35 fold
